Test results taken from ChEMBL document CHEMBL5143636, “Design, synthesis and structure-activity relationship studies of pyrido[2,3-d]pyrimidin-7-ones as potent Janus Kinase 3 (JAK3) covalent inhibitors” (Bioorg Med Chem Lett, 2022).
Activity calls are given as the source filed them. The calls are words filed in the database; no cut-off is given here.

Assays:
[1] = target: T1, Tyrosine-protein kinase JAK3 (Homo sapiens, UniProt P52333)
T1 sequence (P52333 whole entry): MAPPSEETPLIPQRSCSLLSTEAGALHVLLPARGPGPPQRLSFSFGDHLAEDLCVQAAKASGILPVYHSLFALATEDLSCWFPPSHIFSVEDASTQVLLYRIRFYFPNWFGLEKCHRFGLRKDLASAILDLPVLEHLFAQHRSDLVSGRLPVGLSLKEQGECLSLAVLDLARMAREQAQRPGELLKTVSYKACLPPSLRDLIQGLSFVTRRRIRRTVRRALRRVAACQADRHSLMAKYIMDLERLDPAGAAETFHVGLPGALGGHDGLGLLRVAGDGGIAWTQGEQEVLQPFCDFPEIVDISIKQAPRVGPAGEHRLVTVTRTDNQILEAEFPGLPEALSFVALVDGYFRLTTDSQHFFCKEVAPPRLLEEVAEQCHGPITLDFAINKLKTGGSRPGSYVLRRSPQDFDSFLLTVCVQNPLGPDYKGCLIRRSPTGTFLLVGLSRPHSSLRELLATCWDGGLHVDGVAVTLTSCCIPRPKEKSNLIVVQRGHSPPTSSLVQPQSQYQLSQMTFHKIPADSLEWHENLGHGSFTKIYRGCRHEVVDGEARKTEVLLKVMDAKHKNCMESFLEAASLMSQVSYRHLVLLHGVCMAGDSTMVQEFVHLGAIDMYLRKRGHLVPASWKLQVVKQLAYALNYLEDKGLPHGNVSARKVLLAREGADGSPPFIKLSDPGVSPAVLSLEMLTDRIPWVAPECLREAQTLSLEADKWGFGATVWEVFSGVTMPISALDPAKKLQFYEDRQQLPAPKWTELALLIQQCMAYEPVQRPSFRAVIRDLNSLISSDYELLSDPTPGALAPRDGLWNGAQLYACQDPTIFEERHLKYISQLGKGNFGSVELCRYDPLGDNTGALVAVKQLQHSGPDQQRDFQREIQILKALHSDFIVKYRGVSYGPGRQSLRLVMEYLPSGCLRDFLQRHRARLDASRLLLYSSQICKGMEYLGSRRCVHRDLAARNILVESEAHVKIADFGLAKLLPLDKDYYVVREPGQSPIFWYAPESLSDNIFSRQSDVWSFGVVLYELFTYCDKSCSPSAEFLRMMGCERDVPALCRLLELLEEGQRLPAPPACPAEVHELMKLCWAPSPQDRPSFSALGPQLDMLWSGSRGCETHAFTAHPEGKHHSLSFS
Description: Covalent inhibition of recombinant recombinant human GST-tagged JAK3(781 to 1124 residues) expressed in baculovirus expression system incubated for 1 hr in the presence of ATP by FRET based Z'-LYTE assay

U-937 [2] = test: Antiproliferative activity against human U-937 cells harbouring JAK3 M511 mutation assessed as reduction in cell viability incubated for 72 hrs by CCK-8 assay; format: functional, cell-based; details: U-937, 72 h
[3] = target: T1, Tyrosine-protein kinase JAK3; test: Inhibition of JAK3 (unknown origin) incubated for 1 hr in the presence of ATP by FRET based Z'-LYTE assay
U-937 [4] = test: Effect on JAK3 protein level in human U-937 cells at 12.5 to 200 nM measured after 12 hrs by Western blotting analysis; format: functional, cell-based; details: dose 12.5-200 nM
[5] = target: T2, Signal transducer and activator of transcription 5A (Homo sapiens) (UniProt P42229); test: Inhibition STAT5 phosphorylation in human U-937 cells measured after 12 hrs by Western blotting analysis; format: cell-based; details: dose 12.5-200 nM, DDE = dose-dependent effect
T2 sequence (whole entry): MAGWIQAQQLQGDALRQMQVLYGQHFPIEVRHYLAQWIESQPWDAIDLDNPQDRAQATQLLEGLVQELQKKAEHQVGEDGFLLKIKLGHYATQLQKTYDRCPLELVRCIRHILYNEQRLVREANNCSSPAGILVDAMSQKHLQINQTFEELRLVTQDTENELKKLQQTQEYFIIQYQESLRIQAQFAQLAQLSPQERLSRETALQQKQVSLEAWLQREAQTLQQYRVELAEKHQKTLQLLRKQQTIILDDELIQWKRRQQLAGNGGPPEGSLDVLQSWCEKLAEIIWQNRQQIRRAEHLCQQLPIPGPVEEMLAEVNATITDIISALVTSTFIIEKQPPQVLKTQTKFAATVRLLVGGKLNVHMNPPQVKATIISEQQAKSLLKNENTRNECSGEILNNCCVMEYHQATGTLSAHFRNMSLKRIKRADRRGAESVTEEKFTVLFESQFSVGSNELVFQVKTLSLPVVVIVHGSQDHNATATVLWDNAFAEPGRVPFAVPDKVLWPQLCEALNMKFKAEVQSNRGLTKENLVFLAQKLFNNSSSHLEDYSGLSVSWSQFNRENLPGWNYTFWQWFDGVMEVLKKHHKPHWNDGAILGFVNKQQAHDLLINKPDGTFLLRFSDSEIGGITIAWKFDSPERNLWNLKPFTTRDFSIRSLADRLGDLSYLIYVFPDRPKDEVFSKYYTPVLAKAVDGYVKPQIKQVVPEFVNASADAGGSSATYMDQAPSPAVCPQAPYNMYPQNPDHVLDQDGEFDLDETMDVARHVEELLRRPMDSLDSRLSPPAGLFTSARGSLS

Jurkat = test: Antiproliferative activity against human Jurkat cells assessed as reduction in cell viability incubated for 72 hrs by CCK-8 assay; format: functional, cell-based
[6] = target: Tyrosine-protein kinase JAK1 (Homo sapiens, UniProt P23458); test: Inhibition of JAK1 (unknown origin) incubated for 1 hr in the presence of ATP by FRET based Z'-LYTE assay
Tyrosine-protein kinase JAK1, sequence (P23458 whole entry, the tested form may be a part): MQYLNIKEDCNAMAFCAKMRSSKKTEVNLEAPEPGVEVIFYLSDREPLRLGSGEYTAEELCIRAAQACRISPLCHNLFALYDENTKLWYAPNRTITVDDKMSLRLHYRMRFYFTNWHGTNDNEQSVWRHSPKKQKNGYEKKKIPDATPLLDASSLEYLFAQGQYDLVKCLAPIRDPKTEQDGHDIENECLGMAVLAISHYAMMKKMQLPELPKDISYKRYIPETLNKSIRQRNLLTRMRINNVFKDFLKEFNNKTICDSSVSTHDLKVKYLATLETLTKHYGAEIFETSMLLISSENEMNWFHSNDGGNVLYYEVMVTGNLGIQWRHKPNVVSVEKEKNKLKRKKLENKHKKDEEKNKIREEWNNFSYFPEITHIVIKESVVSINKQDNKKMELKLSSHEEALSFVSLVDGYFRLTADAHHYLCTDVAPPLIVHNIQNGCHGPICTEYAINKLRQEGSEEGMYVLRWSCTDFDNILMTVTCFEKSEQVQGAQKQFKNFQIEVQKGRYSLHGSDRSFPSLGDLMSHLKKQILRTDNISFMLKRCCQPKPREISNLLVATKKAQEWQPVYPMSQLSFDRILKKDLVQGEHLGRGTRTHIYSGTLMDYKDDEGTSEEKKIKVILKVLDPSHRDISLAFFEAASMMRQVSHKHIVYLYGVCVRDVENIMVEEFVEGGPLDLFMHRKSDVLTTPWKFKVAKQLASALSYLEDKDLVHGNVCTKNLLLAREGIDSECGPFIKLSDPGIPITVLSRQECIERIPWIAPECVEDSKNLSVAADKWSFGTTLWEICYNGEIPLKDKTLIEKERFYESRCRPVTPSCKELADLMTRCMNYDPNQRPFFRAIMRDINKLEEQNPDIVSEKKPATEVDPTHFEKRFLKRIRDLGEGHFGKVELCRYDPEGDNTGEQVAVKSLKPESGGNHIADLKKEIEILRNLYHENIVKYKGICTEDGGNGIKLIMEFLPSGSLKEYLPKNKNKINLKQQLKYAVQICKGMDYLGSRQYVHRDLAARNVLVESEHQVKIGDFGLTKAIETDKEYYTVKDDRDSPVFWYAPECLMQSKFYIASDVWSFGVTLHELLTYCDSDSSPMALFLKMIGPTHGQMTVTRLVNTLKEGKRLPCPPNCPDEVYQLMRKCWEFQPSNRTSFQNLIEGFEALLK

[7] = Selectivity ratio of IC50 for inhibition of BTK (unknown origin) to IC50 for covalent inhibition of recombinant human GST-tagged JAK3 (781 to 1124 residues) expressed in baculovirus expression system
[8] = target: T2, Signal transducer and activator of transcription 5A (Homo sapiens); test: Inhibition of STAT5 phosphorylation in human U-937 cells at 200 nM preincubated for 6 hrs followed by compound washout and measured upto 24 hrs by Western blotting analysis; format: cell-based
OCI-Ly3 = test: Antiproliferative activity against human OCILY3 cells assessed as reduction in cell viability incubated for 72 hrs by CCK-8 assay; format: functional, cell-based; details: OCI-Ly3, 72 h
[9] = target: T3, Tyrosine-protein kinase JAK3 (Homo sapiens) (UniProt P52333); test: Inhibition of JAK3 phosphorylation in human U-937 cells measured after 12 hrs by Western blotting analysis; format: cell-based; details: dose 12.5-200 nM, DDE = dose-dependent effect
T3 sequence (whole entry): T1 sequence (P52333 whole entry)

COLO 205 = test: Antiproliferative activity against human COLO 205 cells assessed as reduction in cell viability incubated for 72 hrs by CCK-8 assay; format: functional, cell-based; details: COLO 205, 72 h
[10] = target: Non-receptor tyrosine-protein kinase TYK2 (Homo sapiens, UniProt P29597); test: Inhibition of TYK2 (unknown origin) incubated for 1 hr in the presence of ATP by FRET based Z'-LYTE assay
Daudi = test: Antiproliferative activity against human Daudi cells assessed as reduction in cell viability incubated for 72 hrs by CCK-8 assay; format: functional, cell-based
[11] = target: Tyrosine-protein kinase JAK2 (Homo sapiens, UniProt O60674); test: Inhibition of JAK2 (unknown origin) incubated for 1 hr in the presence of ATP by FRET based Z'-LYTE assay
NCI-H1299 = test: Antiproliferative activity against human NCI-H1299 cells assessed as reduction in cell viability incubated for 72 hrs by CCK-8 assay; format: functional, cell-based; details: NCI-H1299, 72 h
[12] = target: T3, Tyrosine-protein kinase JAK3 (Homo sapiens); test: Inhibition of JAK3 phosphorylation in human U-937 cells at 200 nM preincubated for 6 hrs followed by compound washout and measured upto 24 hrs by Western blotting analysis; format: cell-based
[13] = target: Epidermal growth factor receptor (Homo sapiens, UniProt P00533, T790M); test: Inhibition of EGFR T790M mutant (unknown origin) incubated for 1 hr in the presence of ATP by FRET based Z'-LYTE assay
Epidermal growth factor receptor (Homo sapiens, UniProt P00533, T790M), sequence (P00533 25-1210 T790M limits assumed): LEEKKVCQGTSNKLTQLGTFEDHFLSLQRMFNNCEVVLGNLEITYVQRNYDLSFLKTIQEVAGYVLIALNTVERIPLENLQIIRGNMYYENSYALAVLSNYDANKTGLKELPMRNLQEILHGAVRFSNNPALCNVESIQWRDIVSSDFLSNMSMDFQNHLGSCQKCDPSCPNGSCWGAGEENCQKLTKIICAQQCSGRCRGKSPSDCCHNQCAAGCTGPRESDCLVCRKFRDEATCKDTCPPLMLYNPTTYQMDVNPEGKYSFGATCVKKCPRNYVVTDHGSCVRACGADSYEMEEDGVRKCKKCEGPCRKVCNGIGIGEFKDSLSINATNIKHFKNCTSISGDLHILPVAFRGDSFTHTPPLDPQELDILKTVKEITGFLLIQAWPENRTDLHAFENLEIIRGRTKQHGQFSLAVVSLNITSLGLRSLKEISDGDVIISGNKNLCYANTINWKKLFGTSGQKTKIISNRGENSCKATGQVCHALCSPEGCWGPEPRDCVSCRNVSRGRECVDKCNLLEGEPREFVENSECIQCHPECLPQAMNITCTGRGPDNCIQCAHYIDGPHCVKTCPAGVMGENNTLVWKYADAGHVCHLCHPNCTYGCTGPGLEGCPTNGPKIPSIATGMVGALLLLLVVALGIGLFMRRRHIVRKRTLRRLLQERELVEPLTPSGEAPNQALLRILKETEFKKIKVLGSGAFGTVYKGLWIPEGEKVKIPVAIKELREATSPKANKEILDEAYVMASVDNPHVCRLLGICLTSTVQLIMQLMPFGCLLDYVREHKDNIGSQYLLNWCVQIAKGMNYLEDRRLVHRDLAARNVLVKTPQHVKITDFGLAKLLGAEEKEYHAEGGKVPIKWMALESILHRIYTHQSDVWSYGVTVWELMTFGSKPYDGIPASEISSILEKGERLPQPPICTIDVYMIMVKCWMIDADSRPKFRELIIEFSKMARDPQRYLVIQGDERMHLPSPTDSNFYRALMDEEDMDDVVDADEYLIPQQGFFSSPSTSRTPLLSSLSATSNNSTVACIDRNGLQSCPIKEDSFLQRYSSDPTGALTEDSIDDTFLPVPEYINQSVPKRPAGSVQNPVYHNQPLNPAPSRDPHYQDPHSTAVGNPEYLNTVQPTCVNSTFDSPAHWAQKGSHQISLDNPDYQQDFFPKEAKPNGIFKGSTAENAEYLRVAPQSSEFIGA

[14] = Selectivity ratio of IC50 for inhibition of wild type EGFR (unknown origin) to IC50 for covalent inhibition of recombinant human GST-tagged JAK3 (781 to 1124 residues) expressed in baculovirus expression system
MOLT-4 = test: Antiproliferative activity against human MOLT-4 cells assessed as reduction in cell viability incubated for 72 hrs by CCK-8 assay; format: functional, cell-based; details: MOLT-4, 72 h
[15] = Selectivity ratio of IC50 for inhibition of EGFR T790M mutant (unknown origin) to IC50 for covalent inhibition of recombinant human GST-tagged JAK3 (781 to 1124 residues) expressed in baculovirus expression system
MDA-MB-231 = test: Antiproliferative activity against human MDA-MB-231 cells assessed as reduction in cell viability incubated for 72 hrs by CCK-8 assay; format: functional, cell-based; details: MDA-MB-231, 72 h
[16] = target: Epidermal growth factor receptor (Homo sapiens, UniProt P00533); test: Inhibition of wild type EGFR (unknown origin) incubated for 1 hr in the presence of ATP by FRET based Z'-LYTE assay
Epidermal growth factor receptor (Homo sapiens, UniProt P00533), sequence (P00533 whole entry): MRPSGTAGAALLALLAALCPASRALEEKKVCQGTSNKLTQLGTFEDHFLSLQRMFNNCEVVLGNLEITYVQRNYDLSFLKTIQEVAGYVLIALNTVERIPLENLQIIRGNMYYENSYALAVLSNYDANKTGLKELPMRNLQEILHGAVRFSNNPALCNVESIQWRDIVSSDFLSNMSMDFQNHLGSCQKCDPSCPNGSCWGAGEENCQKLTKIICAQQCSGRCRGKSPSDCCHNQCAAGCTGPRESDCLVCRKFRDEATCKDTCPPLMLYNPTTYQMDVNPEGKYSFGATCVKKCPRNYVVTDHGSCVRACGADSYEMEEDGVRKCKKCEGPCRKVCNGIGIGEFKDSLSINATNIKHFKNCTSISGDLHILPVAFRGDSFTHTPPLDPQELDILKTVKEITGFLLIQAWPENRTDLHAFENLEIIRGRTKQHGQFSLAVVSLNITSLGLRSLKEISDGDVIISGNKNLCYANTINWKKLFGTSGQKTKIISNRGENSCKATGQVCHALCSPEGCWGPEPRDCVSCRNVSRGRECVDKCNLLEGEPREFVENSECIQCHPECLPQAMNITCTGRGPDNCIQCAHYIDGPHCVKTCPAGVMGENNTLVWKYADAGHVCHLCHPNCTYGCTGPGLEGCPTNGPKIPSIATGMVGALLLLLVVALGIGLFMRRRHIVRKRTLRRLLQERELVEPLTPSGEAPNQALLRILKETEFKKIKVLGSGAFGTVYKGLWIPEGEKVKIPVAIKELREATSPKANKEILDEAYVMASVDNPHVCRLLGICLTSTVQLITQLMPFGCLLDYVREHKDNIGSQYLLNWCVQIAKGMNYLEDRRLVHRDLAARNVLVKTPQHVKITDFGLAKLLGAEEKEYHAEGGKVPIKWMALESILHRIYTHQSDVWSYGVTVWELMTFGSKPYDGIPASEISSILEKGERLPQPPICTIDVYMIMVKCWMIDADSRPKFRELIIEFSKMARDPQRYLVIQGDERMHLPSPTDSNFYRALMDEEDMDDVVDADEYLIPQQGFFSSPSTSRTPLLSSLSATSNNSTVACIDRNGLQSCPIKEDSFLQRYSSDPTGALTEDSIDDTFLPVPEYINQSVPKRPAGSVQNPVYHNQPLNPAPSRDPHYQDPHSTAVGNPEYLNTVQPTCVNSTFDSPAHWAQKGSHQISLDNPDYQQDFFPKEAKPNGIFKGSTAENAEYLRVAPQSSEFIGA

U-937 [17] = test: Effect on STAT5 protein level in human U-937 cells at 12.5 to 200 nM measured after 12 hrs by Western blotting analysis; format: functional, cell-based; details: dose 12.5-200 nM
[18] = target: Tyrosine-protein kinase BTK (Homo sapiens, UniProt Q06187); test: Inhibition of BTK (unknown origin) incubated for 1 hr in the presence of ATP by FRET based Z'-LYTE assay
Tyrosine-protein kinase BTK, sequence (Q06187 whole entry): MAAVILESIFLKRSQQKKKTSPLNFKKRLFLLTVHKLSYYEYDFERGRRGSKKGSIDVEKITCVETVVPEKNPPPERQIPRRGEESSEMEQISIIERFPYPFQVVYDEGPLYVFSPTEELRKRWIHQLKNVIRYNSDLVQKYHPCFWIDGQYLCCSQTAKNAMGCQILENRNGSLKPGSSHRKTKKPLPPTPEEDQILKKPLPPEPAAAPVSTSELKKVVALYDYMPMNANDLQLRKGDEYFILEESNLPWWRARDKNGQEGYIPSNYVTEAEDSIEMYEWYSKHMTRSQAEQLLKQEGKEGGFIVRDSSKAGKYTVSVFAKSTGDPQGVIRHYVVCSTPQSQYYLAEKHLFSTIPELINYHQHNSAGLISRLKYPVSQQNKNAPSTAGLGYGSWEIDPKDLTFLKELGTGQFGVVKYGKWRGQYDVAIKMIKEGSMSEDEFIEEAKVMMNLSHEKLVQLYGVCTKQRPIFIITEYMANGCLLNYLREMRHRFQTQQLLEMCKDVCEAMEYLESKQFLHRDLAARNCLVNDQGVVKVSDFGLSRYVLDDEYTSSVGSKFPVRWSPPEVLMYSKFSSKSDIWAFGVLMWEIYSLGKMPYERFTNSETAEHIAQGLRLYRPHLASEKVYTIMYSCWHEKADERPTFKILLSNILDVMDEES

HCT-116 = test: Antiproliferative activity against human HCT-116 cells assessed as reduction in cell viability incubated for 72 hrs by CCK-8 assay; format: functional, cell-based; details: HCT-116, 72 h

C=CC(=O)Nc1cccc(Cn2c(=O)ccc3cnc(Nc4ccc(N5CCN(C)CC5)cc4OC(C)C)nc32)c1
IC50 [1]: 1300 nM

C=CC(=O)N1C[C@H](Nc2ncnc3[nH]ccc23)CC[C@@H]1C [RITLECITINIB]
IC50 (U-937 [2]): 40 nM

C=CC(=O)Nc1cccc(Cn2c(=O)ccc3cnc(Nc4cnn(CCOC)c4)nc32)c1
IC50 (U-937 [2]): 430 nM
IC50 [1]: 3.3 nM

C=CC(=O)Nc1cccc(Cn2c(=O)ccc3cnc(Nc4cnn(C)c4)nc32)c1
IC50 (U-937 [2]): 220 nM
IC50 [1]: 1.8 nM

C=CC(=O)Nc1cccc(Cn2c(=O)ccc3cnc(Nc4ccc(N5CCN(C(C)=O)CC5)cc4OC)nc32)c1
IC50 (U-937 [2]): 540 nM
IC50 [1]: 3.3 nM

C=CC(=O)Nc1cccc(Cn2c(=O)ccc3cnc(Nc4ccc(C5CCN(C)CC5)cc4OC)nc32)c1
IC50 (U-937 [2]): 520 nM
IC50 [1]: 4.1 nM

C=CC(=O)Nc1ccc(Cn2c(=O)ccc3cnc(Nc4ccccc4OC)nc32)cc1
IC50 [1]: 72.1 nM

C=CC(=O)Nc1cccc(Cn2c(=O)ccc3cnc(Nc4ccc(N(C)CCN(C)C)cc4OC)nc32)c1
IC50 (U-937 [2]): 520 nM
IC50 [1]: 3.1 nM

C=CC(=O)Nc1cccc(-n2c(=O)cc(C)c3cnc(Nc4ccc(N5CCN(C)CC5)cc4OC)nc32)c1
IC50 [3]: 31.3 nM

C=CC(=O)Nc1cccc(Cn2c(=O)ccc3cnc(Nc4ccc(N5CCN(C)CC5)cc4OCC)nc32)c1
IC50 (U-937 [2]): 1810 nM
IC50 [1]: 9.8 nM

C=CC(=O)Nc1cccc(Cn2c(=O)ccc3cnc(Nc4ccccc4OC)nc32)c1
IC50 (U-937 [2]): 2020 nM
IC50 [1]: 3 nM

C=CC(=O)Nc1cccc(Cn2c(=O)cc(C3CC3)c3cnc(Nc4ccc(N5CCN(C)CC5)cc4OC)nc32)c1
IC50 [1]: 1450 nM

C=CC(=O)Nc1cccc(Cn2c(=O)ccc3cnc(Nc4cnn(CCO)c4)nc32)c1
IC50 (U-937 [2]): 470 nM
IC50 [1]: 1.7 nM

C=CC(=O)Nc1cccc(Cn2c(=O)cc(CC)c3cnc(Nc4ccc(N5CCN(C)CC5)cc4OC)nc32)c1
IC50 [1]: 20 nM

C=CC(=O)Nc1cccc(Cn2c(=O)ccc3cnc(Nc4cnn(C5CCN(C)CC5)c4)nc32)c1
IC50 (U-937 [2]): 70 nM
IC50 [1]: 2 nM

CCC(=O)Nc1cccc(Cn2c(=O)ccc3cnc(Nc4ccccc4OC)nc32)c1
IC50 [1]: > 10000 nM

C=CC(=O)Nc1cccc(Cn2c(=O)cc(C)c3cnc(Nc4ccc(N5CCN(C)CC5)cc4OC)nc32)c1
IC50 [1]: 18.2 nM

C=CC(=O)Nc1cccc(Cn2c(=O)cc(CCC)c3cnc(Nc4ccc(N5CCN(C)CC5)cc4OC)nc32)c1
IC50 [1]: > 10000 nM

C=CC(=O)Nc1ccccc1Cn1c(=O)ccc2cnc(Nc3ccccc3OC)nc21
IC50 [1]: > 10000 nM

C=CC(=O)Nc1cccc(Cn2c(=O)ccc3cnc(Nc4ccc(N5CCN(C)CC5)cc4OC)nc32)c1
IC50 (U-937 [2]): 470 nM
IC50 [1]: 1.6 nM

C/C=C/C(=O)Nc1cccc(Cn2c(=O)ccc3cnc(Nc4ccccc4OC)nc32)c1
IC50 [1]: 4800 nM

C=CC(=O)Nc1cccc(Cn2c(=O)ccc3cnc(Nc4ccc(N5CCN(C)CC5)cc4)nc32)c1
Activity (U-937 [4]): Active
inhibition [5]: Dde
IC50 (Jurkat): 2280 nM
IC50 [6]: 2430 nM
Ratio IC50 [7]: 8
IC50 (U-937 [2]): 50 nM
inhibition [8]: Active
IC50 (OCI-Ly3): 1530 nM
inhibition [9]: Dde
IC50 [1]: 2 nM
IC50 (COLO 205): 3840 nM
IC50 [10]: 8880 nM
IC50 (Daudi): 2070 nM
IC50 [11]: 1130 nM
IC50 (NCI-H1299): 4780 nM
inhibition [12]: Active
IC50 [13]: 216 nM
Ratio IC50 [14]: > 100
IC50 (MOLT-4): 2250 nM
Ratio IC50 [15]: > 100
IC50 (MDA-MB-231): 3030 nM
IC50 [16]: 261 nM
Activity (U-937 [17]): Active
IC50 [18]: 15.6 nM
IC50 (HCT-116): 3690 nM
